From ChEMBL document CHEMBL6109039, “Designed and synthesized novel tripeptides targeting diabetes and its related pathologies” (Eur J Med Chem, 2025)
Blank lines part the entries; values can stand above or below the molecule they belong to. The source made the active and inactive calls. No cut-off for these calls is given here. Residues, ends and D or L forms follow the SMILES beside them.

How the values were obtained:
[1] = target: T1, Pancreatic alpha-amylase (Sus scrofa) (UniProt P00690); assay: Mixed type inhibition of porcine pancreatic Alpha-amylase using starch as substrate pre-incubated for 20 mins followed by substrate addition and measured after 15 mins by DNS reagent based absorbance assay; details: time 35.0 min
T1 sequence (whole entry): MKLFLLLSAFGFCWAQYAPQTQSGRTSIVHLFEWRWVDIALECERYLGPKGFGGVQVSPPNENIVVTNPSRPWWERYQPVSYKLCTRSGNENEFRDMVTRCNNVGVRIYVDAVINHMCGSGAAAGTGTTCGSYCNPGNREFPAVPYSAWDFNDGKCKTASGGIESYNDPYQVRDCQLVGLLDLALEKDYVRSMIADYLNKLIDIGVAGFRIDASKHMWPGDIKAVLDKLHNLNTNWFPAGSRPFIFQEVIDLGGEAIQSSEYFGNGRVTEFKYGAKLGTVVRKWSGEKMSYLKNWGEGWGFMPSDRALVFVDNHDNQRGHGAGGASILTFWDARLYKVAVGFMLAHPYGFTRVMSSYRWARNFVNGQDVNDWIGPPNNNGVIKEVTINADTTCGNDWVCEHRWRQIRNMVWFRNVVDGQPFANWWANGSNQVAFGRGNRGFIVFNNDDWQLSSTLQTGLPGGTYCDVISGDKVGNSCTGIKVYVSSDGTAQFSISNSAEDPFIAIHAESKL

[2] = test system: Mus musculus; assay: Antidiabetic activity in STZ induced male Balb/c mouse model assessed as appearance of tubule epithelium at 63.81 ug/kg, ip treated for 21 days; assay type: functional, organism-based; details: dose 63.81 µg/kg, time 21.0 day
[3] = test system: Mus musculus; assay: Antidiabetic activity in STZ induced male Balb/c mouse model assessed as reduction in bowman's space at 63.81 ug/kg, ip treated for 21 days; assay type: functional, organism-based; details: dose 63.81 µg/kg, time 21.0 day
[4] = test system: Mus musculus; assay: Antidiabetic activity in STZ induced male Balb/c mouse model assessed as ordered nephron cells with glomeruli at 63.81 ug/kg, ip treated for 21 days; assay type: functional, organism-based; details: dose 63.81 µg/kg, time 21.0 day
[5] = test system: Mus musculus; assay: Antidiabetic activity in STZ induced male Balb/c mouse model assessed as reduction in glomerulus diameter at 63.81 ug/kg, ip treated for 21 days; assay type: functional, organism-based; details: dose 63.81 µg/kg, time 21.0 day
[6] = test system: Mus musculus; assay: Antidiabetic activity in STZ induced male Balb/c mouse model assessed as amelioration of glomerular necrosis at 10 mg/kg, po treated for 21 days; assay type: functional, organism-based; details: time 21.0 day
[7] = test system: Mus musculus; assay: Antidiabetic activity in STZ induced male Balb/c mouse model assessed as amelioration of endocytic vacuole content at 10 mg/kg, po treated for 21 days; assay type: functional, organism-based; details: time 21.0 day
[8] = test system: Mus musculus; assay: Antidiabetic activity in STZ induced male Balb/c mouse model assessed as amelioration of tubular necrosis at 10 mg/kg, po treated for 21 days; assay type: functional, organism-based; details: time 21.0 day
[9] = test system: Mus musculus; assay: Antidiabetic activity in STZ induced male Balb/c mouse model assessed as amelioration of abnormal nephron cell morphology at 10 mg/kg, po treated for 21 days; assay type: functional, organism-based; details: time 21.0 day
[10] = test system: Mus musculus; assay: Antidiabetic activity in STZ induced male Balb/c mouse model assessed as amelioration of tubular degeneration at 10 mg/kg, po treated for 21 days; assay type: functional, organism-based; details: time 21.0 day
[11] = test system: Mus musculus; assay: Antidiabetic activity in STZ induced male Balb/c mouse model assessed as amelioration of glomerular shrinkage at 10 mg/kg, po treated for 21 days; assay type: functional, organism-based; details: time 21.0 day
[12] = test system: N=C(N)NCCC[C@H](N)C(=O)N[C@@H](Cc1c[nH]c2ccccc12)C(=O)N[C@@H](Cc1c[nH]c2ccccc12)C(=O)O; assay: Competitive inhibition of Alpha-glucosidase (unknown origin) using p-nitrophenyl-alpha-D-glucopyranoside as substrate assessed as Km pre-incubated for 10 mins followed by substrate addition and measured after 5 mins by Lineweaver-Burk plot analysis (reference value: 1.785 mM); assay type: protein assay; details: Homo sapiens; time 15.0 min
[13] = test system: N=C(N)NCCC[C@H](N)C(=O)N[C@@H](Cc1c[nH]c2ccccc12)C(=O)N[C@@H](Cc1c[nH]c2ccccc12)C(=O)O; assay: Competitive inhibition of Alpha-glucosidase (unknown origin) using p-nitrophenyl-alpha-D-glucopyranoside as substrate assessed as maximum velocity pre-incubated for 10 mins followed by substrate addition and measured after 5 mins by Lineweaver-Burk plot analysis (reference value: 0.802); assay type: protein assay; details: Homo sapiens; time 15.0 min

inhibition [1]: Active
Molecule: N=C(N)NCCC[C@H](N)C(=O)N[C@@H](Cc1c[nH]c2ccccc12)C(=O)N[C@@H](Cc1c[nH]c2ccccc12)C(=O)O (H-Arg-Trp-Trp-OH)
Activity [2]: Active
Activity [3]: Active
Activity [4]: Active
Activity [5]: Active

Molecule: CCC1=C(C)CN(C(=O)NCCc2ccc(S(=O)(=O)NC(=O)N[C@H]3CC[C@H](C)CC3)cc2)C1=O
Activity [6]: Active
Activity [7]: Active
Activity [8]: Active
Activity [9]: Active
Activity [10]: Active
Activity [11]: Active

Molecule: Alpha glucosidase (Homo sapiens) (from UniProt O43451+P10253+P14410+Q2M2H8)
Km [12]: 1370 µM
Vmax [13]: 0.7
